Assays:
[1] = target: Gamma-aminobutyric acid (GABA) B receptor 1 (Rattus norvegicus, UniProt Q6MFX8)
D(2) dopamine receptor = D(2) dopamine receptor (Rattus norvegicus, UniProt P61169)
[2] = target: Sigma non-opioid intracellular receptor 1 (Cavia porcellus, UniProt Q60492)
[3] = target: Gamma-aminobutyric acid receptor subunit alpha-1 (Rattus norvegicus, UniProt P62813)
[4] = target: T1, Muscarinic acetylcholine receptor M2 (Rattus norvegicus, UniProt P10980)
T1 sequence (P10980 whole entry): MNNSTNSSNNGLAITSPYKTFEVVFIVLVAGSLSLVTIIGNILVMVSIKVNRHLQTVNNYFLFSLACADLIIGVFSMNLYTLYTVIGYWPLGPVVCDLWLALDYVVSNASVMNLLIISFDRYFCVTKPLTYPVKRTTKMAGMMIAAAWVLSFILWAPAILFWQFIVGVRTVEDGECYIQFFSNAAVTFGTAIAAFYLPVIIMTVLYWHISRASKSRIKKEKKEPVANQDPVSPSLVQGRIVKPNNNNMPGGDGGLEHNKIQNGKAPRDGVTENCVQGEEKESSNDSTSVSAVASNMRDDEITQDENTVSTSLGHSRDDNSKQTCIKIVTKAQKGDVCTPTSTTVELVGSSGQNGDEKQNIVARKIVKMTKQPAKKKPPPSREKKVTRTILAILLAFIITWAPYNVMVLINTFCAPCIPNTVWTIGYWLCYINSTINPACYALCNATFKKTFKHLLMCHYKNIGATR

D(1A) dopamine receptor = D(1A) dopamine receptor (Rattus norvegicus, UniProt P18901)
Chain of D(1A) dopamine receptor (P18901 whole entry): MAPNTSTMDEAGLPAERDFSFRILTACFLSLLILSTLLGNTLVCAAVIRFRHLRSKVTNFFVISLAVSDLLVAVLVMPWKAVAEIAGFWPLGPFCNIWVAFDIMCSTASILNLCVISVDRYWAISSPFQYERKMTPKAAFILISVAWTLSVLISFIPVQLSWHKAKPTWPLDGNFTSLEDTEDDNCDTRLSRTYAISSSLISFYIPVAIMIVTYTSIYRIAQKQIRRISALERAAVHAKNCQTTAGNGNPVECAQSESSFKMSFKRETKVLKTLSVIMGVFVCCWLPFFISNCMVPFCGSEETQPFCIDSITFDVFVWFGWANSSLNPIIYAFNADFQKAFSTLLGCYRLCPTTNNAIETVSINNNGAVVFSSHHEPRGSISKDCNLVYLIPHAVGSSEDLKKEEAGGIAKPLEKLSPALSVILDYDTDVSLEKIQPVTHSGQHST

Histamine H1 receptor = Histamine H1 receptor (Rattus norvegicus, UniProt P31390)
Chain of Histamine H1 receptor (P31390 whole entry): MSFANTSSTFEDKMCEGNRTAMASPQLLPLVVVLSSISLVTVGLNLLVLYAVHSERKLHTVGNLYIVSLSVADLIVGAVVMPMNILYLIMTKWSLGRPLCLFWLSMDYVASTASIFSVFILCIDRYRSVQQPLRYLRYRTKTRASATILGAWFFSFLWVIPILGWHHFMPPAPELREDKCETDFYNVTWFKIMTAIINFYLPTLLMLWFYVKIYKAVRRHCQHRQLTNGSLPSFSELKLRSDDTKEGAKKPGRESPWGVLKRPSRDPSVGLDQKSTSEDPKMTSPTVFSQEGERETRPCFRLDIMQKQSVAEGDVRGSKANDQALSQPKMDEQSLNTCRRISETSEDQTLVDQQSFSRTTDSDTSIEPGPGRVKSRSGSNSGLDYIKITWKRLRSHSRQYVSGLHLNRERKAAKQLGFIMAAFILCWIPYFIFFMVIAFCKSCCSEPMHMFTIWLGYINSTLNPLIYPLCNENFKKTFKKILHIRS

[5] = target: Beta-2 adrenergic receptor (Rattus norvegicus, UniProt P10608)
Chain of Beta-2 adrenergic receptor (P10608 whole entry): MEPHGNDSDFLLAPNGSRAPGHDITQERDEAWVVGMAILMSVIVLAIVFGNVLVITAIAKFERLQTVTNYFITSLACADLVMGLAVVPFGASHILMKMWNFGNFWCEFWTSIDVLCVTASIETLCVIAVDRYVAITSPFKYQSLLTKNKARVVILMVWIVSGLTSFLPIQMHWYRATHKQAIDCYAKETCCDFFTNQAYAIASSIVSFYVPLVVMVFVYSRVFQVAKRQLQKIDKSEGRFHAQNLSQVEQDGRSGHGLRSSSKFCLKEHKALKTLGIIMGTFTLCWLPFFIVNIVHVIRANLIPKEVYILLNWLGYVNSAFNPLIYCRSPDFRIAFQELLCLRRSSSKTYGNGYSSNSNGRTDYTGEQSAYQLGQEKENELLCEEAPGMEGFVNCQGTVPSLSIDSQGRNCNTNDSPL

Chain of Gamma-aminobutyric acid receptor subunit alpha-1 (P62813 whole entry): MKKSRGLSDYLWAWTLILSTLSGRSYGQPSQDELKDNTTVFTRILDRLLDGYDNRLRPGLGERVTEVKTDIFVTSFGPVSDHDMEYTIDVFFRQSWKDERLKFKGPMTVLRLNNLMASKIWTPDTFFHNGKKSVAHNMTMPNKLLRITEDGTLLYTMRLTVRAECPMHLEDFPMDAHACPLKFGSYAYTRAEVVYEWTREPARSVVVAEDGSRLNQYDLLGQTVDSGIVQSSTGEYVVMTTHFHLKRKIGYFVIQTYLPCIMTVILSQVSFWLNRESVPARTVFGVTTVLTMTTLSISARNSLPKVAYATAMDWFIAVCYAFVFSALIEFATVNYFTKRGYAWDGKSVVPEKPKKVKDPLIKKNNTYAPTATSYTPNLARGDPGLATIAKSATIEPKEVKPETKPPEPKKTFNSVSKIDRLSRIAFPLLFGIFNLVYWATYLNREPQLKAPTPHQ
Chain of Sigma non-opioid intracellular receptor 1 (Q60492 whole entry): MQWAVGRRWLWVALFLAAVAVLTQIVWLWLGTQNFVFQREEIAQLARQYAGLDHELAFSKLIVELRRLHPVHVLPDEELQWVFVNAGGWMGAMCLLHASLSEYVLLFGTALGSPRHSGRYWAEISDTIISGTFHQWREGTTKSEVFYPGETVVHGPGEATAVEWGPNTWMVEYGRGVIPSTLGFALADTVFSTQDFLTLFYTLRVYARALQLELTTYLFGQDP
Chain of D(2) dopamine receptor (P61169 whole entry): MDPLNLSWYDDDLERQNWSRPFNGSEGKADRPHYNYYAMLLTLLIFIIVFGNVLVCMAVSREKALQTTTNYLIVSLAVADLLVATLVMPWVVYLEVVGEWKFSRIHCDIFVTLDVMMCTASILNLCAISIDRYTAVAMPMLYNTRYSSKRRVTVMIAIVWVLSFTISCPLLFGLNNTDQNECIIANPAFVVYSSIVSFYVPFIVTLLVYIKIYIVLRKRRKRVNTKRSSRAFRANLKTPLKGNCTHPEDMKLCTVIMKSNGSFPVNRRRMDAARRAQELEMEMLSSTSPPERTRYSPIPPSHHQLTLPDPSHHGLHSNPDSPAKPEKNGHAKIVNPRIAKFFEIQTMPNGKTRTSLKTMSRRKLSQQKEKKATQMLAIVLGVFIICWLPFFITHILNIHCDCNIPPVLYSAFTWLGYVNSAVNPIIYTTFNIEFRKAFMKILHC
Chain of Gamma-aminobutyric acid (GABA) B receptor 1 (Q6MFX8 whole entry): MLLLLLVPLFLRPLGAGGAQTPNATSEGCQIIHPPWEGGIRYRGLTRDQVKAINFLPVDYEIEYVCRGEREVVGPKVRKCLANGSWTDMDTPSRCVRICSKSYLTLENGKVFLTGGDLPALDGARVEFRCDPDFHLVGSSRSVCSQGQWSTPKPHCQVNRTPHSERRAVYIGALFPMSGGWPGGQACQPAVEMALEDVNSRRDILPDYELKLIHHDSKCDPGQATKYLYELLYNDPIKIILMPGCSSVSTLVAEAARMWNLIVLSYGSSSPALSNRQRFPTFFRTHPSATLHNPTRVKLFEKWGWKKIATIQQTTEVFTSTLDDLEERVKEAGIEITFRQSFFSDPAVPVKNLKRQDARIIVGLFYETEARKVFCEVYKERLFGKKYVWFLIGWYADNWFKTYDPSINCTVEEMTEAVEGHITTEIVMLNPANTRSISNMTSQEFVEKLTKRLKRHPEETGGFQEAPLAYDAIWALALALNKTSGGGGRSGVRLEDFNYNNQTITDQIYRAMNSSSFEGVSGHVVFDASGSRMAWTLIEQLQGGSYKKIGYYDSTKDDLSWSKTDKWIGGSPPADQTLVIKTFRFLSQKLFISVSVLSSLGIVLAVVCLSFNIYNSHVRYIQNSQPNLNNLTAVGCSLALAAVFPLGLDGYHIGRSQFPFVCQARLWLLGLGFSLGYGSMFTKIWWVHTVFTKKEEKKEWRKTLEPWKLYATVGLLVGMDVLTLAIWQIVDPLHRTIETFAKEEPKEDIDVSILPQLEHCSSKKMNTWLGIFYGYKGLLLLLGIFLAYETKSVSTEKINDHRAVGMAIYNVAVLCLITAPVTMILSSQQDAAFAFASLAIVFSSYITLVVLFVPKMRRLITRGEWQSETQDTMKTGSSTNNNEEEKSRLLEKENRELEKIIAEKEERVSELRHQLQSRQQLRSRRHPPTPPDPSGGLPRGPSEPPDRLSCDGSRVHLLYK

- Ki [1]: > 10 µM
- Ki (D(2) dopamine receptor): 0.0148 µM
- Ki [2]: 0.286 µM
- Ki [3]: > 10 µM
- Ki [4]: 2.3 µM
- Ki (D(1A) dopamine receptor): 2.87 µM
- Ki (Histamine H1 receptor): 3.01 µM
- Ki [5]: > 10 µM
Compound: CCN1CCN(c2cc(-c3ccc(F)cc3)c3c(n2)CCCCCC3)CC1 [AD-5423]
